Assay results from patent US20040132619A1, “Selective substituted aryl ketone and safener based herbicides” (priority 2001, published 2004).

Legend:
[1] = tested on: Amaranthus; experiment: Post-emergence test/greenhouse, damage to Amaranthus; type: in vivo; details: Table A3
Experimental: (§1) The active compound or safener components are in each case dissolved in a little solvent and then—if appropriate after addition of an emulsifier—diluted with water to the desired concentration. Preferably, an aqueous spray liquor is prepared using 0.1% of the additive Renex-36. Acetone and N,N-dimethylformamide are used as preferred solvents.
(§2) The test plants are grown under controlled conditions (temperature, light, atmospheric humidity) in a greenhouse. The test plants are sprayed when they have reached a height of 5-15 cm. The concentration of the spray liquor is chosen such that the particular amounts of active compound desired are applied in 500 l of water/ha.
(§3) After spraying, the pots with the test plants are kept in a greenhouse chamber under controlled conditions (temperature, light, atmospheric humidity) until the test has ended. About three weeks after the application, the degree of damage to the crop plants is rated in % damage in comparison to the development of the untreated control.
(§4) 0% =no damage (like untreated control)
(§5) 100% =total destruction/damage
(§6) Active compounds, application rates, test plants and results are shown in the tables below, the terms being used in the tables being as defined below:
(§7) a.i.=active ingredient=active compound/safener

[2] = tested on: Chenopodium; experiment: Post-emergence test/greenhouse, damage to Chenopodium; type: in vivo; details: Table A3
Experimental: as §1, §2, §3, §4, §5, §6, §7

[3] = logP (physical data, Table 1); type: physicochemical; details: footnote a) not given
[4] = tested on: maize cv. “Pioneer”; experiment: Post-emergence test/greenhouse, damage to maize; type: in vivo; details: Table A3
Experimental: as §1, §2, §3, §4, §5, §6
maize=maize cv. “Pioneer”
as §7

[5] = tested on: wheat cv. “Orestis”; experiment: Post-emergence test/greenhouse, damage to wheat; type: in vivo
Experimental: (§8) The active compound or safener components are in each case dissolved in a little solvent and then—if appropriate after addition of an emulsifier—diluted with water to the desired concentration. […] Acetone and N,N-dimethylformamide are used as preferred solvents. The test plants are grown under controlled conditions (temperature, light, atmospheric humidity) in a greenhouse. […] After spraying, the pots with the test plants are kept in a greenhouse chamber under controlled conditions (temperature, light, atmospheric humidity) until the test has ended. […] The figures denote: 0% =no damage (like untreated control) […] Active compounds, application rates, test plants and results are shown in the tables below, the terms being used in the tables being as defined below: wheat=wheat cv. “Orestis”, barley=barley cv. “Coronar” a.i.=active ingredient=active compound/safener

[6] = tested on: barley cv. “Coronar”; experiment: Post-emergence test/greenhouse, damage to barley; type: in vivo
Experimental: as §8

[7] = Table A1: sown 31 March, application 19 April (20 days), 125 g of a.i./ha
[8] = Table A1: sown 31 March, application 19 April (20 days), 250 g of a.i./ha
[9] = Table A1: sown 31 March, application 19 April (20 days), 500 g of a.i./ha
[10] = Table A2: sown 12 April, application 10 May (4 weeks), 125 g of a.i./ha
[11] = Table A2: sown 12 April, application 10 May (4 weeks), 250 g of a.i./ha
[12] = Table A2: sown 12 April, application 10 May (4 weeks), 500 g of a.i./ha

COc1nn(Cc2cc(C(F)(F)F)ccc2C(=O)C2C(=O)CCCC2=O)c(=O)n1C [Example I-5]
Damage Amaranthus (in %) ([1]; 30 g of a.i./ha): 100%
Damage Amaranthus (in %) ([1]; 60 g of a.i./ha): 100%
Damage Amaranthus (in %) ([1]; 125 g of a.i./ha): 100%
Damage Chenopodium (in %) ([2]; 30 g of a.i./ha): 100%
Damage Chenopodium (in %) ([2]; 60 g of a.i./ha): 100%
Damage Chenopodium (in %) ([2]; 125 g of a.i./ha): 100%
logP [3]: logP = 2.35^a)
Damage Maize (in %) ([4]; 30 g of a.i./ha): 30%
Damage Maize (in %) ([4]; 60 g of a.i./ha): 60%
Damage Maize (in %) ([4]; 125 g of a.i./ha): 70%

CN1CCCN(Cc2c(S(C)(=O)=O)ccc(C(=O)C3C(=O)CCCC3=O)c2Cl)C1=O [Example I-11]
logP [3]: logP = 1.73^a)

CCN1CCCN(Cc2c(S(C)(=O)=O)ccc(C(=O)C3C(=O)CCCC3=O)c2Cl)C1=O [Example I-12]
logP [3]: logP = 1.96^a)

COc1c(C(=O)c2cnoc2C2CC2)ccc(Cl)c1CN1CCN(C)C1=O [Example I-14]
logP [3]: logP = 2.46^a)

CSc1nn(Cc2cc(C(F)(F)F)ccc2C(=O)C2C(=O)CCCC2=O)c(=O)n1C [Example I-15]
logP [3]: logP = 2.59^a)
Damage Wheat (in %) (5 days) [5, 7]: 30%
Damage Wheat (in %) (20 days) [5, 7]: 20%
Damage Wheat (in %) (5 days) [5, 8]: 40%
Damage Wheat (in %) (20 days) [5, 8]: 20%
Damage Wheat (in %) (5 days) [5, 9]: 40%
Damage Wheat (in %) (20 days) [5, 9]: 30%
Damage Wheat (in %) (5 days) [5, 10]: 20%
Damage Wheat (in %) (20 days) [5, 10]: 30%
Damage Wheat (in %) (5 days) [5, 11]: 35%
Damage Wheat (in %) (20 days) [5, 11]: 40%
Damage Wheat (in %) (5 days) [5, 12]: 35%
Damage Wheat (in %) (20 days) [5, 12]: 50%
Damage Barley (in %) (5 days) [6, 7]: 40%
Damage Barley (in %) (20 days) [6, 7]: 10%
Damage Barley (in %) (5 days) [6, 8]: 50%
Damage Barley (in %) (20 days) [6, 8]: 15%
Damage Barley (in %) (5 days) [6, 9]: 50%
Damage Barley (in %) (20 days) [6, 9]: 20%
Damage Barley (in %) (5 days) [6, 10]: 35%
Damage Barley (in %) (20 days) [6, 10]: 25%
Damage Barley (in %) (5 days) [6, 11]: 35%
Damage Barley (in %) (20 days) [6, 11]: 30%
Damage Barley (in %) (5 days) [6, 12]: 35%
Damage Barley (in %) (20 days) [6, 12]: 50%
